What all share (assay type): cell-based
For experiment [1], the target named is T1, acid-sensing ion channel 3 (rASIC3) (Rattus norvegicus, UniProt O35240).
T1 construct: gene Asic3
T1 sequence (O35240 1-533): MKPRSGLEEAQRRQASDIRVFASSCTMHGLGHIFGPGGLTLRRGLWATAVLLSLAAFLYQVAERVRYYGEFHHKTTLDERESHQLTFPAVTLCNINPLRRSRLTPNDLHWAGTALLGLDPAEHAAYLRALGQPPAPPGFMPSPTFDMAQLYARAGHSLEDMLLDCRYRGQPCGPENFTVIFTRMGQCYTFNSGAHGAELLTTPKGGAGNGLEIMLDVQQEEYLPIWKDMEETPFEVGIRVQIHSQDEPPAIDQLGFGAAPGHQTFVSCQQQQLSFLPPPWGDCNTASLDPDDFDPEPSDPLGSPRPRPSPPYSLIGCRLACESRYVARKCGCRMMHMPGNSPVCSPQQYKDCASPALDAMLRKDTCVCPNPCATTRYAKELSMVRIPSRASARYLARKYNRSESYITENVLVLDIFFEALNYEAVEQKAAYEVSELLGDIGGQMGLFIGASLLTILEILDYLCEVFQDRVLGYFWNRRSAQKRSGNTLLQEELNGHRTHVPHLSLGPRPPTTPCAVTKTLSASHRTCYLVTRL
The experiment is described as follows: whole-cell patch clamp, rASIC3-transfected CHO cells, activation at pH […] (reference agonist; estimated EC50).

Experiment [2] deals with T1, acid-sensing ion channel 3 (rASIC3). The experiment is described as follows: whole-cell patch clamp, rASIC3-transfected CHO cells, activation at pH […] (estimated EC50; also potentiates pH […] and pH […] responses).
The target is the same in experiment [3]. In words: whole-cell patch clamp, rASIC3-transfected CHO cells, potentiation of the pH […] response at […] (no effect on pH […] response). For orientation: Patch clamp records ionic current or voltage across a cell membrane.

Structures are written as SMILES. pEC50: −log10 of the molar value.

For orientation: pEC50 means the negative decadic logarithm of the EC50, by convention in mol/L.

With `Cc1nc(NC(=N)N)nc2ccccc12` [GMQ, 2-guanidine-4-methylquinazoline], the pEC50 in experiment [1] is roughly 3.17.
For the compound `N=C(N)N/N=C/c1c(Cl)cccc1Cl` [GBZ, guanabenz], the pEC50 in experiment [2] was roughly 4.17.
On to `Clc1ccc2nsnc2c1NC1=NCCN1` [TIZ, tizanidine], for which the “whole-cell patch clamp, rASIC3-transfected CHO cells, potentiation of the pH 7 r” value in experiment [3] was “TIZ and GBZ produced a similar effect, inducing an increase in the peak and sustained currents”.

The values above are taken from PMC7068650, “In silico screening of GMQ-like compounds reveals guanabenz and sephin1 as new allosteric modulators of acid-sensing ion channel 3” (Biochemical Pharmacology, 2020).
